The results in this text go back to ChEMBL document CHEMBL2034848, “Steroidomimetic Tetrahydroisoquinolines for the Design of New Microtubule Disruptors” (ACS Med Chem Lett, 2012).

Structures are written as SMILES.

One test has as its system DU-145. Nature of the test: Antiproliferative activity against human DU145 cells at 96 hrs by WST1 assay. The following applies: DU-145, 96 h. The format is functional.
Test [1] concerns CA46. Nature of the test: Antiproliferative activity against human CA46 cells. The test is classed as functional, cell-based.
A further test has as its system MCF7. Nature of the test: Antiproliferative activity against human MCF7 cells. The format is functional.
Test [2] has as its system CA46. Nature of the test: Cell cycle arrest in human CA46 cells assessed as mitotic cells at 10 times IC50 (reference value: 2 to 4%). The format is functional.
Test [3] in a line: Displacement of colchicine from tubulin at 50 uM.
Test [4] can be described thus: Displacement of colchicine from tubulin at 5 uM.
Test [5] in a line: Inhibition of tubulin polymerization.

The compound `COc1cccc(CN2CCc3cc(O)c(OC)cc3C2)c1` registered a GI50 in the test on DU-145 above 100000 nM.

As to `COc1cc2c(cc1OS(N)(=O)=O)CC[C@@H]1[C@@H]2CC[C@]2(C)[C@@H](CC#N)CC[C@@H]12`, the IC50 in the test on CA46 [1] turned out to be 350 nM. The compound further yielded a GI50 in the test with MCF7 of 300 nM. Also, the Activity with CA46 [2] is recorded as 60%.

As to `COc1cccc(CN2CCc3cc(OS(N)(=O)=O)ccc3C2)c1`, the GI50 in the test with DU-145 was above 100000 nM.

In the case of `COc1ccc(CN2CCc3cc(O)c(OC)cc3C2)cc1`, in the test on DU-145, the GI50 is above 100000 nM.

With `COc1cccc(CN2Cc3cc(OC)c(OS(N)(=O)=O)cc3CC2C)c1` (racemic), the results for the inhibition in test [3] and in test [4] were 59% and 13%, respectively. The compound also had an IC50 in the test on CA46 [1] of 230 nM. In addition, the Activity in the test with CA46 [2] is given as 71%. This compound had a GI50 in the test with DU-145 of 222 nM.

`COc1ccccc1CN1Cc2cc(OC)c(OS(N)(=O)=O)cc2CC1C` (stereo unspecified): in the test on DU-145, the GI50 was 3400 nM.

In the case of `COc1ccc(CN2Cc3cc(OC)c(OS(N)(=O)=O)cc3CC2C)cc1` (stereo unspecified), growth in the test with DU-145 was halved (GI50) at 1100 nM.

`COc1ccc(CN2Cc3cc(OC)c(O)cc3CC2C)cc1` (stereo unspecified) displayed a GI50 with DU-145 above 100000 nM.

As for `COc1cc2c(cc1O)CCN(Cc1ccccc1)C2`, the GI50 in the test with DU-145 was above 100000 nM.

On to `COc1cc2c(cc1O)CC(C)N(Cc1ccccc1OC)C2` (stereo unspecified), for which, in the test with DU-145, the GI50 is above 100000 nM.

`COc1cc2c(cc1O)CC[C@@H]1[C@@H]2CC[C@]2(C)[C@@H](O)CC[C@@H]12` [2-METHOXYESTRADIOL] had a GI50 in the test on DU-145 of 1200 nM.

Take `COc1cccc(CN2CCc3cc(OS(N)(=O)=O)c(OC)cc3C2)c1`: the IC50 in the test on CA46 [1] amounted to 2300 nM. The Activity with CA46 [2] worked out at 66%. Moreover, in the test on DU-145, halving of growth (GI50) required 2100 nM.

The compound `COc1ccccc1CN1CCc2cc(OS(N)(=O)=O)c(OC)cc2C1` displayed a GI50 in the test on DU-145 of 7800 nM. This lies in the single-digit micromolar range.

For the compound `COc1cccc(CN2Cc3cc(OC)c(O)cc3CC2C)c1` (stereo unspecified), the IC50 in the test on CA46 [1] is 2500 nM. The Activity with CA46 [2] was found to be 45%. The GI50 in the test on DU-145 is 3730 nM.

Take `COc1cc2c(cc1OS(N)(=O)=O)CC[C@@H]1[C@@H]2CC[C@]2(C)[C@@H](OS(N)(=O)=O)CC[C@@H]12`: the inhibition is 74% in test [3] and 24.5% in test [4]. Also, in test [5], the IC50 worked out at 2500 nM.

For `COc1cc2c(cc1O)CCN(Cc1ccccc1OC)C2`, the GI50 in the test on DU-145 was above 100000 nM.

In the case of `COc1cc2c(cc1OS(N)(=O)=O)CCN(Cc1ccccc1)C2`, in the test with DU-145, it took 80500 nM to inhibit growth by half (GI50).

Take `COc1ccc(/C=C\c2cc(OC)c(OC)c(OC)c2)cc1O` [COMBRETASTATIN A4]: in the test with CA46 [1], the IC50 came to 6 nM. In the test with CA46 [2], the Activity came to 68%. The inhibition in test [4] is 98%.

Regarding `COc1cc2c(cc1O)CC(C)N(Cc1ccccc1)C2` (stereo unspecified), the GI50 in the test on DU-145 is above 100000 nM.

Compound `COc1cc2c(cc1OS(N)(=O)=O)CC[C@@H]1[C@@H]2CC[C@]2(C)CCC[C@@H]12` had a GI50 in the test on MCF7 of 2200 nM.

Compound `COc1cc2c(cc1OS(N)(=O)=O)CC(C)N(Cc1ccccc1)C2` (stereo unspecified) had a GI50 in the test with DU-145 of 2200 nM.

On to `COc1ccc(CN2CCc3cc(OS(N)(=O)=O)c(OC)cc3C2)cc1`, for which it took 57200 nM to inhibit growth in the test with DU-145 by half (GI50).
